Results: US7468376B2, “Pyrazolopyridine derivates” (Palau Pharma, S.A., priority 2003, dated 2008)

system: TNF-α release induced by LPS in human peripheral blood mononuclear cells; experiment: Test 2: Inhibition of TNF-α release induced by LPS in human peripheral blood mononuclear cells; assay type: cell-based; settings: Homo sapiens, PBMC, test product at 0.1 μM, LPS 400 ng/mL, 19 h, TNF-α in supernatant by ELISA
Procedure: Test 2: Inhibition of TNF-α Release Induced by LPS in Human Peripheral Blood Mononuclear Cells
To obtain the mononuclear cells: heparinized venous blood, obtained from healthy volunteers, is diluted with an equal volume of saline phosphate buffer without calcium or magnesium. Aliquots of 30 mL of the mixture are transferred to 50 mL centrifuge tubes containing 15 mL of Ficoll-Hypaque (1.077 g/mL). The tubes are centrifuged at 1200×g for 20 min at room temperature without braking. Approximately two-thirds of the band of platelets lying above the mononuclear cells is removed with a pipette. The mononuclear cells are carefully transferred to a 50 mL tube, washed twice with saline phosphate buffer, centrifuged at 300×g for 10 min at room temperature and resuspended in RPMI supplemented with 1% inactivated fetal bovine serum at a cell density of 2×10^6 cells/mL.
Inhibition of TNF-α release: 100 μL of mononuclear cells (2×10^6 cells/mL) are incubated on 96-well plates with 50 μL of the test product (final concentration, 0.001-10 μM) and 50 μL LPS (E. coli 055B5, Sigma) at a final concentration of 400 ng/mL for 19 h at 37° C. in an atmosphere with CO2 at 5%. The amount of TNF-α released in the supernatant is quantified using a commercial ELISA kit (Biosource International).

SMILES	inhibition at 0.1 µM
FC(F)(F)c1cccc(-c2nc3[nH]ncc3cc2-c2ccnc(NCC3CC3)n2)c1 [Example 208, N-Cyclopropylmethyl-[4-[6-[3-(trifluoromethyl)phenyl]-1H-pyrazolo[3,4-b]pyridin-5-yl]pyrimidin-2-yl]amine]	67.7%
NCc1n[nH]c2nc(-c3ccc(F)cc3)c(-c3ccncc3)c(-c3ccc(F)cc3)c12 [Example 68, 3-Aminomethyl-4,6-bis(4-fluorophenyl)-5-(4-pyridyl)-1H-pyrazolo[3,4-b]pyridine]	50%
Cc1ccc(-c2c(-c3ccncc3)c(-c3ccc(F)cc3)nc3nn(CCCO)cc23)o1 [Example 272, 3-[6-(4-Fluorophenyl)-4-(5-methylfuran-2-yl)-5-(4-pyridyl)-pyrazolo[3,4-b]pyridin-2-yl]propan-1-ol]	65.6%
CC(CO)Nc1nccc(-c2cc3cn(C)nc3nc2-c2ccc(F)cc2)n1 (stereo not shown) [Example 283, 2-[4-[6-(4-Fluorophenyl)-2-methylpyrazolo[3,4-b]pyridin-5-yl]pyrimidin-2-ylamino]propan-1-ol]	52.4%
OCCCn1cc2c(-c3ccccc3)c(-c3ccncc3)c(-c3ccccc3)nc2n1 [Example 137, 3-[4,6-Diphenyl-5-(4-pyridyl)pyrazolo[3,4-b]pyridin-2-yl]propan-1-ol]	61.4%
OC1CCN(CCn2cc3c(-c4ccc(F)cc4)c(-c4ccncc4)c(-c4ccc(F)cc4)nc3n2)CC1 [Example 106, 1-[2-[4,6-Bis(4-fluorophenyl)-5-(4-pyridyl)pyrazolo[3,4-b]pyridin-2-yl]ethyl]piperidin-4-ol]	69.3%
Fc1ccc(-c2nc3c(cnn3CC3CCNCC3)c(-c3ccc(F)cc3)c2-c2ccncc2)cc1 [Example 39, 4,6-Bis(4-fluorophenyl)-1-(4-piperidylmethyl)-5-(4-pyridyl)pyrazolo[3,4-b]pyridine]	51.1%
Cn1cc2c(-c3ccc(F)cc3)c(-c3ccncc3)c(-c3ccc(F)cc3)nc2n1 [Example 8, 4,6-Bis(4-fluorophenyl)-2-methyl-5-(4-pyridyl)pyrazolo[3,4-b]pyridine]	66.3%
COCCOCCn1cc2c(-c3ccc(F)cc3)c(-c3ccncc3)c(-c3ccc(F)cc3)nc2n1 [Example 82, 4,6-Bis(4-fluorophenyl)-2-[2-(2-methoxyethoxy)ethyl]-5-(4-pyridyl)pyrazolo[3,4-b]pyridine]	59.9%
Fc1ccc(-c2nc3nn(CCC4CCNCC4)cc3c(-c3ccc(F)cc3)c2-c2ccncc2)cc1 [Example 43, 4,6-Bis(4-fluorophenyl)-2-[2-(4-piperidyl)ethyl]-5-(4-pyridyl)pyrazolo[3,4-b]pyridine]	61.2%
OCCCn1cc2cc(-c3ccnc(NCC4CC4)n3)c(-c3ccc(F)cc3)nc2n1 [Example 212, 3-[5-[2-[(Cyclopropylmethyl)-amino]pyrimidin-4-yl]-6-(4-fluorophenyl)pyrazolo[3,4-b]pyridin-2-yl]propan-1-ol]	67.5%
Cn1cc2cc(-c3ccnc(NCC4CC4)n3)c(-c3ccc(F)cc3)nc2n1 [Example 210, N-Cyclopropylmethyl-[4-[6-(4-fluorophenyl)-2-methylpyrazolo[3,4-b]pyridin-5-yl]pyrimidin-2-yl]amine]	57.3%
Fc1ccc(-c2nc3nn(Cc4cccnc4)cc3c(-c3ccc(F)cc3)c2-c2ccncc2)cc1 [Example 102, 4,6-Bis(4-fluorophenyl)-5-(4pyridyl)-2-(3-pyridylmethyl)pyrazolo[3,4-b]pyridine]	67.9%
O=C(NCCn1cc2c(-c3ccc(F)cc3)c(-c3ccncc3)c(-c3ccc(F)cc3)nc2n1)C1CCNCC1 [Example 248, N-[2-[4,6-Bis(4-fluorophenyl)-5-(4-pyridyl)pyrazolo[3,4-b]pyridin-2-yl]ethyl]piperidine-4-carboxamide]	53.2%

same assay, conditions: test product at 0.1 μM, LPS 400 ng/mL, 19 h, TNF-α in supernatant by ELISA

SMILES	% Inhibition at 0.1 μM
Cc1c2c(-c3ccc(F)cc3)c(-c3ccncc3)c(-c3ccc(F)cc3)nc2nn1C1CCNCC1 [Example 41, 4,6-Bis(4-fluorophenl)-3-methyl-2-(4-piperidyl)-5-(4-pyridyl)pyrazolo[3,4-b]pyridine]	90.6%
c1ccc(-c2nc3[nH]ncc3cc2-c2ccnc(NCC3CC3)n2)cc1 [Example 282, N-Cyclopropylmethyl-4-[6-[phenyl-1H-pyrazolo[3,4-b]pyridin-5-yl]pyrimidin-2-yl]amine]	65.2%
